Structures are written as SMILES.

The target in the assay is 20S proteasome (Homo sapiens, UniProt P28072+P28074+Q99436). Nature of the assay: activation of Ac-Arg-Leu-Arg-AMC hydrolysis. In kind it is biochemical. To be noted: activator, trypsin-like activity.

For the compound `C=C(CC)C(=O)c1ccc(OCC(=O)NCCCCCCNC(=O)[C@H](CCCNC(=O)OC(C)(C)C)NC(=O)OC(C)(C)C)c(Cl)c1Cl` [compound 4, EA-B2O], the fold activation entry is “Activation of the trypsin-like subunits was also observed with EA-B1G and EA-B2O”. For `C=C(CC)C(=O)c1ccc(OCC(=O)NCCCCCCNC(=O)CNC(=O)OC(C)(C)C)c(Cl)c1Cl` [compound 5, EA-B1G] the value was “Activation of the trypsin-like subunits was also observed with EA-B1G and EA-B2O”.

These data come from paper PMC5524191 (ACS chemical biology, 2016).
